Assay results reported in article PMC9851200, “Multiparameter phenotypic screening for endogenous TFEB and TFE3 translocation identifies novel chemical series modulating lysosome function” (Autophagy, 2022).

What was measured:
Assay type in all cases: binding
[1] = target: kinases (KINOMEscan panel) (Homo sapiens, UniProt Q99683)
[2] = target: kinases (KINOMEscan panel) (Homo sapiens, UniProt Q9P289)
[3] = target: kinases (KINOMEscan panel) (Homo sapiens, UniProt Q9UEE5)
[4] = target: kinases (KINOMEscan panel) (Homo sapiens, UniProt P31152)
[5] = target: kinases (KINOMEscan panel) (Homo sapiens, UniProt O75582); details: NEW KINOMEscan
[6] = target: kinases (KINOMEscan panel) (Homo sapiens, UniProt P51812)
[7] = target: kinases (KINOMEscan panel) (Homo sapiens, UniProt Q9Y2K2)
[8] = target: kinases (KINOMEscan panel) (Homo sapiens, UniProt O95382)
[9] = target: kinases (KINOMEscan panel) (Homo sapiens, UniProt Q6P2M8)
[10] = target: kinases (KINOMEscan panel) (Homo sapiens, UniProt Q16659)
[11] = target: kinases (KINOMEscan panel) (Homo sapiens, UniProt Q86UX6)
[12] = target: kinases (KINOMEscan panel) (Homo sapiens, UniProt Q13043)
[13] = target: kinases (KINOMEscan panel) (Homo sapiens, UniProt P42679)
[14] = target: kinases (KINOMEscan panel) (Homo sapiens, UniProt Q16288)
[15] = target: kinases (KINOMEscan panel) (Homo sapiens, UniProt Q05397)
[16] = target: kinases (KINOMEscan panel) (Homo sapiens, UniProt Q8NEB9)
[17] = target: kinases (KINOMEscan panel) (Homo sapiens, UniProt Q8IY84)
[18] = target: kinases (KINOMEscan panel) (Homo sapiens, UniProt Q15831)
[19] = target: kinases (KINOMEscan panel) (Homo sapiens, UniProt Q13882)
[20] = target: kinases (KINOMEscan panel) (Homo sapiens, UniProt P35968)
[21] = target: kinases (KINOMEscan panel) (Homo sapiens, UniProt Q32MK0)
[22] = target: kinases (KINOMEscan panel) (Homo sapiens, UniProt P27361)
[23] = target: kinases (KINOMEscan panel) (Homo sapiens, UniProt Q15349)
[24] = target: kinases (KINOMEscan panel) (Homo sapiens, UniProt P04629)
[25] = target: kinases (KINOMEscan panel) (Homo sapiens, UniProt Q92918)
[26] = target: kinases (KINOMEscan panel) (Homo sapiens, UniProt P23443)
[27] = target: kinases (KINOMEscan panel) (Homo sapiens, UniProt O00506)
[28] = target: kinases (KINOMEscan panel) (Homo sapiens, UniProt O94768)
[29] = target: kinases (KINOMEscan panel) (Homo sapiens, UniProt Q9H093)
[30] = target: kinases (KINOMEscan panel) (Homo sapiens, UniProt Q8WU08)
[31] = target: kinases (KINOMEscan panel) (Homo sapiens, UniProt Q15208)
[32] = target: kinases (KINOMEscan panel) (Homo sapiens, UniProt Q9NYL2)
[33] = target: kinases (KINOMEscan panel) (Homo sapiens, UniProt P08581)
[34] = target: kinases (KINOMEscan panel) (Homo sapiens, UniProt P0C264)
[35] = target: kinases (KINOMEscan panel) (Homo sapiens, UniProt O75676); details: NEW KINOMEscan
[36] = target: kinases (KINOMEscan panel) (Homo sapiens, UniProt Q14289)
[37] = target: kinases (KINOMEscan panel) (Homo sapiens, UniProt Q13153)
[38] = target: kinases (KINOMEscan panel) (Homo sapiens, UniProt Q12852)
[39] = target: kinases (KINOMEscan panel) (Homo sapiens, UniProt P52564)
[40] = target: kinases (KINOMEscan panel) (Homo sapiens, UniProt O43283)

Sequence of kinases (KINOMEscan panel) (Homo sapiens, UniProt P51812) (P51812 whole entry): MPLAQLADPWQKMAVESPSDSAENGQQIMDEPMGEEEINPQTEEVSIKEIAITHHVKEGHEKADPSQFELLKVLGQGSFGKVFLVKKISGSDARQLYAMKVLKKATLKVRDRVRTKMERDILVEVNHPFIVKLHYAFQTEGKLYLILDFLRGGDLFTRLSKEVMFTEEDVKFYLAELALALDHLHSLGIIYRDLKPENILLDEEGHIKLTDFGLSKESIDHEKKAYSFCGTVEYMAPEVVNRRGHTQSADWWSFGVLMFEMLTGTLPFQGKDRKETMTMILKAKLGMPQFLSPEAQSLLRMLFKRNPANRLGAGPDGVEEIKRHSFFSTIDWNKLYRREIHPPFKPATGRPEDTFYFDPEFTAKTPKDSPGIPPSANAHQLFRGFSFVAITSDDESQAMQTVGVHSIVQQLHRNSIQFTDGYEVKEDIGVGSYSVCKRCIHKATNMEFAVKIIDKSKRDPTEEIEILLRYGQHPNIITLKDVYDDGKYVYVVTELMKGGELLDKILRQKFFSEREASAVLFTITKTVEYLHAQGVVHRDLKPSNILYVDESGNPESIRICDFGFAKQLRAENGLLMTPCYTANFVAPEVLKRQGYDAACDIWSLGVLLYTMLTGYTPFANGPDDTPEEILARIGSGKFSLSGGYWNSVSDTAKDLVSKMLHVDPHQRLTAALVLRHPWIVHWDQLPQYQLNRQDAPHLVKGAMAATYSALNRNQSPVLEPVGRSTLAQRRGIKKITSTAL
Sequence of kinases (KINOMEscan panel) (Homo sapiens, UniProt O75676) (O75676 whole entry): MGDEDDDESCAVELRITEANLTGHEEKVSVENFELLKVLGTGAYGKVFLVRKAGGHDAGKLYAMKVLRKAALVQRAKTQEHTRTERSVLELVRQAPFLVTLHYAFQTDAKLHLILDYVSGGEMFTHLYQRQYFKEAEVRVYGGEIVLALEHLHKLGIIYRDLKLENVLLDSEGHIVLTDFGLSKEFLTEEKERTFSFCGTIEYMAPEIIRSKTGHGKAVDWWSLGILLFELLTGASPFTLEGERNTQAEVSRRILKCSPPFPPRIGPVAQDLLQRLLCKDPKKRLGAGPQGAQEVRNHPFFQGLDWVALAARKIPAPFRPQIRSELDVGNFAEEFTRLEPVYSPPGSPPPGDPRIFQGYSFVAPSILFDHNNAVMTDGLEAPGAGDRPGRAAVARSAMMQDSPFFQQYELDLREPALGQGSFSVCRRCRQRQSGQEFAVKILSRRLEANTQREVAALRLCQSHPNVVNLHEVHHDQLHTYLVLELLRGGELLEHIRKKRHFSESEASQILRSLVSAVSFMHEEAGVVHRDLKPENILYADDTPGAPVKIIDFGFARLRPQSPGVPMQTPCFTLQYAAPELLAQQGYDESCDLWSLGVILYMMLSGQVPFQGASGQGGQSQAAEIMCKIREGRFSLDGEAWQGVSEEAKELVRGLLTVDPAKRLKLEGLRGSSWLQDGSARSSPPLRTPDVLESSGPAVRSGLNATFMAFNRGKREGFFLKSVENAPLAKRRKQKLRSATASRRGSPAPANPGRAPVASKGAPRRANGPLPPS
Sequence of kinases (KINOMEscan panel) (Homo sapiens, UniProt O75582) (O75582 whole entry): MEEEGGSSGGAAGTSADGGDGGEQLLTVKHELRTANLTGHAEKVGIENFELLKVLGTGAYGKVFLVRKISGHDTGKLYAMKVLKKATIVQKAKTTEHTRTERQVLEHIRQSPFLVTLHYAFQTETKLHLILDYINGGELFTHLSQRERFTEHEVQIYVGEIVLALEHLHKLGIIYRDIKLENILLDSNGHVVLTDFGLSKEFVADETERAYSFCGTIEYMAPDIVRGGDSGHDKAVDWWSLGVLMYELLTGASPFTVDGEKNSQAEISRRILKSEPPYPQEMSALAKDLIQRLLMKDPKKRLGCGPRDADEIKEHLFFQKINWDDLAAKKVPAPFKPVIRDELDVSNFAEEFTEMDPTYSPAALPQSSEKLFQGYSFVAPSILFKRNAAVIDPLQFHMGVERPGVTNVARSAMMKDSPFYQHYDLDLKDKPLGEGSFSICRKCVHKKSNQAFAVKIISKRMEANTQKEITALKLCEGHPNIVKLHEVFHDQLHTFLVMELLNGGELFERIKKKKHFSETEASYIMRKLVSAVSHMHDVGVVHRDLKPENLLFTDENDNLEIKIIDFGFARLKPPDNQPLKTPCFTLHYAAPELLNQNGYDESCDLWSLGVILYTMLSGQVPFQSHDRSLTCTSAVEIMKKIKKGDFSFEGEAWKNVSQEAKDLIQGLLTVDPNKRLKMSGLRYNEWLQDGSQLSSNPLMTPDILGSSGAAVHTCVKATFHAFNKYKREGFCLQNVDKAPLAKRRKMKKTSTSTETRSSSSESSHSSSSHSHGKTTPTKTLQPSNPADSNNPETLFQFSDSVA
Sequence of kinases (KINOMEscan panel) (Homo sapiens, UniProt Q15349) (Q15349 whole entry): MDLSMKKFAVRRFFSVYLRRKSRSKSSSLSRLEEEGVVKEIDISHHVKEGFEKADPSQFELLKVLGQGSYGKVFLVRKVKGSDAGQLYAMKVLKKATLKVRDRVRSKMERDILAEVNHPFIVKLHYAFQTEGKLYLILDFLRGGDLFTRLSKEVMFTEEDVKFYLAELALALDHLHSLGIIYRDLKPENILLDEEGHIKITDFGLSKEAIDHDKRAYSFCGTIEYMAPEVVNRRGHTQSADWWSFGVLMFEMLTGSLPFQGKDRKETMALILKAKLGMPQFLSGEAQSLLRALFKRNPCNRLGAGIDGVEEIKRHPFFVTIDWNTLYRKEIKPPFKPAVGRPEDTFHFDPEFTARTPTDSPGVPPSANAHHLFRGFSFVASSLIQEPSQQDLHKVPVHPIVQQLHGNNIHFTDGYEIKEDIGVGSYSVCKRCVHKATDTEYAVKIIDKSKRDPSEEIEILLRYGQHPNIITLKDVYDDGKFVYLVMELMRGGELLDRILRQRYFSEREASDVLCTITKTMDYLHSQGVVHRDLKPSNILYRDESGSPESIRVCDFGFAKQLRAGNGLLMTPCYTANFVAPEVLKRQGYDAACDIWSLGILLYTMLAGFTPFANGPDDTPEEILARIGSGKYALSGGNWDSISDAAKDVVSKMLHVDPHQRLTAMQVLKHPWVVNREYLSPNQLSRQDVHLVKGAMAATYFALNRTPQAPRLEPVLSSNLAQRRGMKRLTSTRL
Sequence of kinases (KINOMEscan panel) (Homo sapiens, UniProt P04629) (P04629 33-796): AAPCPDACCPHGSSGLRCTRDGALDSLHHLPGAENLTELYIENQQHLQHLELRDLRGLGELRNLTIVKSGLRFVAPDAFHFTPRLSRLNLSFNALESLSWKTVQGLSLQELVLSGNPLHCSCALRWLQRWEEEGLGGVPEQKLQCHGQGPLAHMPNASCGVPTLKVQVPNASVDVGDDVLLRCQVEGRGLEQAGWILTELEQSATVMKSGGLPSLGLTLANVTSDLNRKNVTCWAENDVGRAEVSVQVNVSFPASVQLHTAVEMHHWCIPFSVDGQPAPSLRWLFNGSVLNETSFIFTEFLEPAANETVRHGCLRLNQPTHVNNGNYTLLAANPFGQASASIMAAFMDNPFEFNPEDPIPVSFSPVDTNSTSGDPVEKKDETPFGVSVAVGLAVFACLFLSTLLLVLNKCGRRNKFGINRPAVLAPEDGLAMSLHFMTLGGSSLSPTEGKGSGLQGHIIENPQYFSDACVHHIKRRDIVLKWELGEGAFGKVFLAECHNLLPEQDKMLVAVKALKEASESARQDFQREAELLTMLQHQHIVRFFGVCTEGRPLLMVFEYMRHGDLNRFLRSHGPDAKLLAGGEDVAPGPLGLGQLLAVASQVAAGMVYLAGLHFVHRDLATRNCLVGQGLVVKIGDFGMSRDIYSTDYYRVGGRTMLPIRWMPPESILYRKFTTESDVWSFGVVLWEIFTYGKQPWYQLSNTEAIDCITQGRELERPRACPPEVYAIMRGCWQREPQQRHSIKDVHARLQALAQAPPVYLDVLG
Sequence of kinases (KINOMEscan panel) (Homo sapiens, UniProt O95382) (O95382 whole entry): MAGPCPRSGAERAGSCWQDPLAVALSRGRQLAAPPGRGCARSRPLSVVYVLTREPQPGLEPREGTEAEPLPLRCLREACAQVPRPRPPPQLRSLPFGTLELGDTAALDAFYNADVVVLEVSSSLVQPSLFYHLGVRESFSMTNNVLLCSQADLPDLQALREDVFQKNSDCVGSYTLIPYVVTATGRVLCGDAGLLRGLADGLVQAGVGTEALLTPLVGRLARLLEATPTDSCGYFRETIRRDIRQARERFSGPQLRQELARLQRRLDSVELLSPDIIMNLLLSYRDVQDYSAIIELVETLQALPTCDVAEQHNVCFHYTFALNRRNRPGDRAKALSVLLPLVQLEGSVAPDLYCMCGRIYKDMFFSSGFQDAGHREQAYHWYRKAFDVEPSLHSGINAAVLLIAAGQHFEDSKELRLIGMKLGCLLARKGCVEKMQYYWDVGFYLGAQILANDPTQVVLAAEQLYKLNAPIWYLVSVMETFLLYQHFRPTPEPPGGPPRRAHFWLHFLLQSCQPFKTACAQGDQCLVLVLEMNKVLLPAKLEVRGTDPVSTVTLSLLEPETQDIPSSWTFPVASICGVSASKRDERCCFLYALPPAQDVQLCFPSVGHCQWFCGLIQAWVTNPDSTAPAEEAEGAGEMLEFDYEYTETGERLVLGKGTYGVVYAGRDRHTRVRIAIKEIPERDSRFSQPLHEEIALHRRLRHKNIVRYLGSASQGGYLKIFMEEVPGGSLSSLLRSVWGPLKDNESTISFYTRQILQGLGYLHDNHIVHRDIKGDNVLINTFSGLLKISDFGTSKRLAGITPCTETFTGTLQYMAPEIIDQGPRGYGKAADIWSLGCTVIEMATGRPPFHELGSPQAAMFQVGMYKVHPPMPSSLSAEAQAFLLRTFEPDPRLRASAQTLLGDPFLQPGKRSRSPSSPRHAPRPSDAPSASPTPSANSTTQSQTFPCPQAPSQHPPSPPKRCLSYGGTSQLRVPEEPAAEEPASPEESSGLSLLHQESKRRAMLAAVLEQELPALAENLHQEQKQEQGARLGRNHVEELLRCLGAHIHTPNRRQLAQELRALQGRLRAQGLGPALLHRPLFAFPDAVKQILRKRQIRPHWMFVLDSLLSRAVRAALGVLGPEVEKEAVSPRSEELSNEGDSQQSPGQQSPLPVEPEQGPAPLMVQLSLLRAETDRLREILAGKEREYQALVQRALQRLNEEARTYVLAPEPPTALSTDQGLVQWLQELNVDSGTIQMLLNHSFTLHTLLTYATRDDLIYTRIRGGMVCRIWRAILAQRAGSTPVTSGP

## Cc1cccc(-c2nc(N(C)c3ccc4ncsc4c3)c3ccccc3n2)n1 [NK-161]
[1]
  KINOMEscan MAP3K5/ASK1: 0
[2]
  KINOMEscan STK26/MST4: 5
[3]
  KINOMEscan STK17A/DRAK1: 0
[4]
  KINOMEscan MAPK4/ERK4: 6
[5]
  KINOMEscan RPS6KA5(Kin.Dom.1-N-terminal): 21
[5]; kinase RPS6KA5(Kin.Dom.2-C-terminal)
  KINOMEscan RPS6KA5(Kin.Dom.2-C-terminal): 0
[6]
  KINOMEscan RPS6KA3/RSK2(Kin.Dom.1-N-terminal): 5
  KINOMEscan RPS6KA3/RSK2(Kin.Dom.2-C-terminal): 27
[7]
  KINOMEscan SIK3/QSK: 0
[8]
  KINOMEscan MAP3K6/ASK2: 0
[9]
  KINOMEscan PNCK/CAMK1B: 0
[10]
  KINOMEscan MAPK6/ERK3: 14
[11]
  KINOMEscan STK32C/YANK3: 18
[12]
  KINOMEscan STK4/MST1: 17
[13]
  KINOMEscan MATK/CTK: 8
[14]
  KINOMEscan NTRK3/TRKC: 29
[15]
  KINOMEscan PTK2/FAK: 0
[16]
  KINOMEscan PIK3C3/VPS34: 0
[17]
  KINOMEscan NIM1K/NIM1: 12
[18]
  KINOMEscan STK11/LKB1: 0
[19]
  KINOMEscan PTK6/BRK: 0
[20]
  KINOMEscan KDR/VEGFR2: 4
[21]
  KINOMEscan MYLK/MLCK: 8
[22]
  KINOMEscan MAPK3/ERK1: 14
[23]
  KINOMEscan RPS6KA2/RSK3(Kin.Dom.1-N-terminal): 0
  KINOMEscan RPS6KA2/RSK3(Kin.Dom.2-C-terminal): 16
[24]
  KINOMEscan NTRK1/TRKA: 22
[25]
  KINOMEscan MAP4K1/HPK1: 0
[26]
  KINOMEscan RPS6KB1/S6K1: 0
[27]
  KINOMEscan STK25/YSK1: 2
[28]
  KINOMEscan STK17B/DRAK2: 4
[29]
  KINOMEscan NUAK2/SNARK: 15
[30]
  KINOMEscan STK32A/YANK1: 0
[31]
  KINOMEscan NDR1/STK38: 42
[32]
  KINOMEscan MAP3K20/ZAK: 0
[33]
  KINOMEscan SLTM/MET: 11
[34]
  KINOMEscan SBK3/SgK110: 0
[35]; RPS6KA4(Kin.Dom.1-N-terminal)
  KINOMEscan RPS6KA4(Kin.Dom.1-N-terminal): 0
[35]; RPS6KA4(Kin.Dom.2-C-terminal)
  KINOMEscan RPS6KA4(Kin.Dom.2-C-terminal): 0
[36]
  KINOMEscan PTK2B/PYK2: 9
[37]
  KINOMEscan PKN1/PAK1: 0
[38]
  KINOMEscan MAP3K12/DLK: 0
[39]
  KINOMEscan MAP2K6/MEK6: 12
[40]
  KINOMEscan MAP3K13/LZK: 22
